Measured values: a compilation of properties of binary mixtures (doi:10.1007/s10953-010-9562-5)

Assay: xn = mol fraction of the nth substance listed
Details: 101 kPa

CCCC[N+]1(C)CCCC1.O=S(=O)([N-]S(=O)(=O)C(F)(F)F)C(F)(F)F + CC1COC(=O)O1
Details	electrical conductivity, 253.15 K [S/m]	electrical conductivity, 258.15 K [S/m]	electrical conductivity, 263.15 K [S/m]	electrical conductivity, 268.15 K [S/m]	electrical conductivity, 273.15 K [S/m]	electrical conductivity, 278.15 K [S/m]	electrical conductivity, 283.15 K [S/m]	electrical conductivity, 288.15 K [S/m]	electrical conductivity, 293.15 K [S/m]	viscosity, 293.15 K [mPa·s]
x2 = 0	0.017	0.031	0.045	0.072	–	0.152	0.193	0.249	–	–
x2 = 0.05	0.021	0.037	–	0.082	0.122	0.168	–	0.271	0.328	70.58
x2 = 0.11	–	0.043	0.062	0.094	0.137	0.185	0.234	0.295	0.357	59.09
x2 = 0.16	0.032	–	0.073	0.108	0.154	0.205	–	0.322	0.388	50.53
x2 = 0.21	–	0.061	0.086	0.124	0.173	0.228	0.284	0.351	0.421	44.05
x2 = 0.26	0.049	–	0.102	0.143	–	–	0.313	–	0.458	38.97
x2 = 0.32	0.06	0.086	0.12	0.165	0.22	0.281	0.346	0.42	0.498	34.77
x2 = 0.37	0.074	0.102	–	0.19	0.249	0.312	–	0.459	0.542	31.1
x2 = 0.42	0.09	0.121	0.165	0.218	–	0.347	0.421	0.501	0.588	27.69
x2 = 0.47	–	0.144	0.193	0.251	0.316	0.385	0.464	–	0.638	24.42
x2 = 0.53	0.13	0.169	–	0.288	0.356	0.426	0.51	0.595	–	–
x2 = 0.58	0.155	–	0.261	0.328	0.399	0.47	–	0.645	0.742	18.11
x2 = 0.63	–	0.231	0.3	0.372	0.444	0.516	0.606	0.696	0.794	15.13
x2 = 0.68	0.213	0.266	0.341	–	0.491	0.562	–	0.745	–	–
x2 = 0.74	0.243	0.302	0.381	0.461	–	0.604	0.697	–	–	–
x2 = 0.79	–	0.333	0.415	0.496	0.57	0.637	0.728	–	–	–
x2 = 0.84	0.287	0.353	0.432	0.512	0.585	0.649	0.735	0.821	–	–
x2 = 0.89	–	0.344	–	0.487	0.559	0.621	–	0.776	–	–
x2 = 0.95	0.232	0.274	0.323	0.377	0.445	–	–	0.63	–	–
x2 = 0.97	0.165	0.182	0.232	0.296	0.375	0.414	–	0.528	–	–
